Like-named read-outs stand apart in the source and are kept apart here.
Test system: Hyperlipidemic Hamster
Experiment: In Vivo Assay of Hypolipidemic Agents Using the Hyperlipidemic Hamster
Settings: for change in vivo at 50 mg/kg / change in vivo at 3 mg/kg / change in vivo at 10 mg/kg / change in vivo at 30 mg/kg / change in vivo at 25 mg/kg: Mesocricetus auratus, po, 168 h; for change in vivo at 3 mg/kg: 3 mg/kg once daily oral; for change in vivo at 10 mg/kg: 10 mg/kg once daily oral; for change in vivo at 30 mg/kg: 30 mg/kg once daily oral; for change in vivo at 25 mg/kg: 25 mg/kg once daily oral
Method: In Vivo Assay of Hypolipidemic Agents Using the Hyperlipidemic Hamster
Hamsters are separated into groups of six and given a controlled cholesterol diet (Purina Chow #5001 containing 0.5% cholesterol) for seven days. Diet consumption is monitored to determine dietary cholesterol exposure in the face of test compounds. The animals are dosed with the test compound once daily beginning with the initiation of diet. Dosing is by oral gavage of 0.2mL of corn oil alone (control group) or solution (or suspension) of test compound in corn oil. All animals roodbund or in poor physical condition are euthanized. After seven days, the animals are anesthetized by IM injection of ketamine and sacrificed by decapitation. Blood is collected into vacutainer tubes containing EDTA for plasma lipid analysis and the liver excised for tissue lipid analysis. Data is reported as percent reduction of lipid versus control.
Using the test procedures described above, the following in vitro and in vivo data were obtained for the preferred compounds, which are referred to in the following table by the corresponding example numbers. For the in vitro ACAT data, negative percent inhibition denotes apparent stimulation,while positive numbers denote inhibition. For the in vivo results, data is reported as percent change versus control, therefore, negative numbers indicate a positive lipid-lowering effect.

[1] = 50 mg/kg once daily oral, 7 days, percent change versus control, negative = lowering, read-out: % Reduction (in vivo) Cholest. Esters
[2] = 50 mg/kg once daily oral, 7 days, percent change versus control, negative = lowering, read-out: % Reduction (in vivo) Serum Cholest.
[3] = read-out: % Reduction (in vivo) Cholest. Esters
[4] = read-out: % Reduction (in vivo) Serum Cholest.
[5] = 7 days, percent change versus control, negative = lowering, read-out: % Reduction (in vivo) Cholest. Esters
[6] = 7 days, percent change versus control, negative = lowering, read-out: % Reduction (in vivo) Serum Cholest.
[7] = 50 mg/kg once daily oral, 7 days, percent change versus control, negative = lowering

COc1ccc([C@@H]2[C@@H](CCCc3ccccc3)C(=O)N2c2cccnc2)cc1 (relative stereo) [Example 1AM]
change in vivo at 50 mg/kg [1]: -29%
change in vivo at 50 mg/kg [2]: -12%

COc1ccc([C@@H]2[C@@H](CCCc3ccccc3)C(=O)N2c2ccc(OC(F)(F)F)cc2)cc1 (relative stereo) [Example 1AN]
change in vivo at 50 mg/kg [1]: -85%
change in vivo at 50 mg/kg [2]: -34%

COc1ccc([C@H]2[C@@H](CCCc3ccccc3)C(=O)N2c2ccc(Cl)cc2)cc1 (relative stereo) [Example 1AO]
change in vivo at 50 mg/kg [1]: -78%
change in vivo at 50 mg/kg [2]: -33%

COc1ccc([C@H]2[C@@H](CCCc3ccccc3)C(=O)N2c2ccc(C)cc2)cc1 (relative stereo) [Example 1AP]
change in vivo at 50 mg/kg [1]: -95%
change in vivo at 50 mg/kg [2]: -51%

COc1ccc([C@H]2[C@@H](CCCc3ccccc3)C(=O)N2c2ccc(Oc3ccccc3)cc2)cc1 (relative stereo) [Example 1AQ]
change in vivo at 50 mg/kg [1]: -22%
change in vivo at 50 mg/kg [2]: -20%

COc1ccc(N2C(=O)[C@H](CCCc3ccccc3)[C@H]2c2nccn2COCC[Si](C)(C)C)cc1 (relative stereo) [Example 1AV]
change in vivo at 50 mg/kg [3]: 0%
change in vivo at 50 mg/kg [4]: 15%

COc1ccc(N2C(=O)[C@H](CCCc3ccccc3)[C@@H]2c2nccn2COCC[Si](C)(C)C)cc1 (relative stereo) [Example 1AW]
change in vivo at 50 mg/kg [3]: -16%
change in vivo at 50 mg/kg [4]: -14%

COc1ccc(N2C(=O)[C@H](CCCc3ccccc3)[C@@H]2c2ccc(OC(C)C)cc2)cc1 (relative stereo) [Example 1AY]
change in vivo at 50 mg/kg [1]: -78%
change in vivo at 50 mg/kg [2]: -28%

CCCOc1ccc([C@H]2[C@@H](CCCc3ccccc3)C(=O)N2c2ccc(OC)cc2)cc1 (relative stereo) [Example 1AZ]
change in vivo at 50 mg/kg [1]: -91%
change in vivo at 50 mg/kg [2]: -37%

COc1ccc(N2C(=O)[C@H](CCCc3ccccc3)[C@@H]2c2ccc(OC)c(C)c2)cc1 (relative stereo) [Example 1BA]
change in vivo at 50 mg/kg [1]: 0%
change in vivo at 50 mg/kg [2]: 0%

CCCCOc1ccc([C@H]2[C@@H](CCCc3ccccc3)C(=O)N2c2ccc(OC)cc2)cc1 (relative stereo) [Example 1BR]
change in vivo at 50 mg/kg [1]: -70%
change in vivo at 50 mg/kg [2]: -15%

COc1ccc(N2C(=O)[C@H](CCCc3ccccc3)[C@@H]2c2ccc(Oc3ccccc3)cc2)cc1 (relative stereo) [Example 1BS]
change in vivo at 50 mg/kg [1]: -43%
change in vivo at 50 mg/kg [2]: 0%

COc1ccc(N2C(=O)[C@H](CCCc3ccccc3)[C@@H]2c2ccc(-c3ccccc3)cc2)cc1 (relative stereo) [Example 1BT]
change in vivo at 50 mg/kg [1]: 0%
change in vivo at 50 mg/kg [2]: 0%

C=CCOc1ccc([C@H]2[C@@H](CCCc3ccccc3)C(=O)N2c2ccc(OC)cc2)cc1 (relative stereo) [Example 1BU]
change in vivo at 50 mg/kg [1]: -95%
change in vivo at 50 mg/kg [2]: -39%

COc1ccc(N2C(=O)[C@H](CCCc3ccccc3)[C@@H]2c2cc(OC)c(OC)c(OC)c2)cc1 (relative stereo) [Example 1BV]
change in vivo at 50 mg/kg [1]: 0%
change in vivo at 50 mg/kg [2]: -11%

COc1ccc(N2C(=O)[C@H](CCCc3ccccc3)[C@@H]2c2cn(C)c3ccccc23)cc1 (relative stereo) [Example 1BW]
change in vivo at 50 mg/kg [1]: -29%
change in vivo at 50 mg/kg [2]: -9%

COc1ccc(N2C(=O)[C@H](CCCc3ccccc3)[C@@H]2c2ccnc3ccccc23)cc1 (relative stereo) [Example 1BX]
change in vivo at 50 mg/kg [1]: 0%
change in vivo at 50 mg/kg [2]: 0%

CCOc1ccc([C@H]2[C@@H](CCCc3ccccc3)C(=O)N2c2ccccc2)cc1 (relative stereo) [Example 1BY]
change in vivo at 50 mg/kg [1]: -72%
change in vivo at 50 mg/kg [2]: -18%

COc1ccc(N2C(=O)[C@H](CCCc3ccccc3)[C@@H]2c2cc3ccccc3o2)cc1 (relative stereo) [Example 1BZ]
change in vivo at 50 mg/kg [1]: 0%
change in vivo at 50 mg/kg [2]: -9%

COc1ccc(N2C(=O)[C@@H](CCCc3ccccc3)[C@@H]2c2cc3ccccc3o2)cc1 (relative stereo) [Example 1CA]
change in vivo at 50 mg/kg [1]: 0%
change in vivo at 50 mg/kg [2]: -12%

COc1ccc([C@H]2[C@@H](CCCc3ccccc3)C(=O)N2c2ccc(O[Si](C)(C)C(C)(C)C)cc2)cc1 (relative stereo) [Example 1CB]
change in vivo at 50 mg/kg [3]: 0%
change in vivo at 50 mg/kg [4]: 0%

COc1ccc([C@H]2[C@@H](CCOc3ccc(F)cc3)C(=O)N2c2ccccc2)cc1 (relative stereo) [Example 1CH]
change in vivo at 3 mg/kg [5]: -80%
change in vivo at 3 mg/kg [6]: -24%
change in vivo at 10 mg/kg [5]: -90%
change in vivo at 10 mg/kg [6]: -41%
change in vivo at 50 mg/kg [1]: -95%
change in vivo at 50 mg/kg [2]: -49%

COc1ccc([C@@H]2[C@H](N(C)C)C(=O)N2c2ccccc2)cc1 (relative stereo) [Example 1CJ]
change in vivo at 50 mg/kg [1]: 0%
change in vivo at 50 mg/kg [2]: 0%

COc1ccc(N2C(=O)[C@@H](CCCc3ccccc3)[C@@H]2c2ccc(SC)cc2)cc1 (relative stereo) [Example 1CM]
change in vivo at 50 mg/kg [1]: 0%
change in vivo at 50 mg/kg [2]: 0%

COc1ccc([C@@H]2[C@@H](CCOc3ccc(F)cc3)C(=O)N2c2ccc(OC)cc2)cc1 (relative stereo) [Example 5AA]
change in vivo at 50 mg/kg [1]: -93%
change in vivo at 50 mg/kg [2]: -53%

COc1ccc([C@@H]2[C@@H](CCCc3ccccc3)C(=O)N2c2ccc(F)cc2)cc1 (relative stereo) [Example 5D]
change in vivo at 10 mg/kg [5]: -77%
change in vivo at 10 mg/kg [6]: -24%
change in vivo at 30 mg/kg [5]: -94%
change in vivo at 30 mg/kg [6]: -41%
change in vivo at 50 mg/kg [1]: -95%
change in vivo at 50 mg/kg [2]: -38%

COc1ccc([C@@H]2[C@@H](CCCc3ccccc3)C(=O)N2c2cccc(OC)c2)cc1 (relative stereo) [Example 5E]
change in vivo at 50 mg/kg [1]: -91%
change in vivo at 50 mg/kg [2]: -38%

COc1ccc([C@@H]2[C@@H](CCCc3ccccc3)C(=O)N2c2ccc(Cl)cc2)cc1 (relative stereo) [Example 5G]
change in vivo at 50 mg/kg [1]: -93%
change in vivo at 50 mg/kg [2]: -44%

CCOc1ccc(N2C(=O)[C@H](CCCc3ccccc3)[C@H]2c2ccc(OC)cc2)cc1 (relative stereo) [Example 5H]
change in vivo at 50 mg/kg [1]: -96%
change in vivo at 50 mg/kg [2]: -57%

COc1ccc([C@@H]2[C@@H](CCCc3ccccc3)C(=O)N2c2ccc(SC)cc2)cc1 (relative stereo) [Example 5I]
change in vivo at 50 mg/kg [1]: -70%
change in vivo at 50 mg/kg [2]: -26%

COc1ccc([C@@H]2[C@@H](CCCc3ccccc3)C(=O)N2c2ccc(C)cc2)cc1 (relative stereo) [Example 5J]
change in vivo at 50 mg/kg [1]: -90%
change in vivo at 50 mg/kg [2]: -38%

COc1ccc(N2C(=O)[C@H](CCCc3ccccc3)[C@H]2c2ccc(OCc3ccccc3)cc2)cc1 (relative stereo) [Example 5T]
change in vivo at 50 mg/kg [1]: -48%
change in vivo at 50 mg/kg [2]: -15%

C=CCOc1ccc([C@@H]2[C@@H](CCCc3ccccc3)C(=O)N2c2ccc(OC)cc2)cc1 (relative stereo) [Example 5U]
change in vivo at 50 mg/kg [1]: -86%
change in vivo at 50 mg/kg [2]: -48%

COc1ccc(N2C(=O)[C@H](CCCc3ccccc3)[C@H]2c2ccc(Oc3ccccc3)cc2)cc1 (relative stereo) [Example 5V]
change in vivo at 50 mg/kg [1]: -77%
change in vivo at 50 mg/kg [2]: -37%

COc1ccc([C@@H]2[C@@H](CCCc3ccccc3)C(=O)N2c2ccc(OC)cc2)cc1 (relative stereo) [Example 5W]
% Reduction (in vivo) Cholest. Esters [7]: -19%
% Reduction (in vivo) Serum Cholest. [7]: 0%

COc1ccc([C@@H]2[C@@H](CCCCCCc3ccccc3)C(=O)N2c2ccc(OC)cc2)cc1 (relative stereo) [Example 5Y]
change in vivo at 50 mg/kg [1]: 0%
change in vivo at 50 mg/kg [2]: -29%

COc1ccc([C@@H]2[C@@H](OCCc3ccccc3)C(=O)N2c2ccc(OC)cc2)cc1 (relative stereo) [Example 5Z]
change in vivo at 50 mg/kg [1]: 0%
change in vivo at 50 mg/kg [2]: -16%

COc1ccc([C@@H]2[C@@H](CCCc3ccccc3)C(=O)N2c2ccc(OC)cc2)cc1 (relative stereo) [Example 5]
% Reduction (in vivo) Cholest. Esters [7]: -77.5%
% Reduction (in vivo) Serum Cholest. [7]: -29%
change in vivo at 10 mg/kg [5]: -60%
change in vivo at 10 mg/kg [6]: -21%
change in vivo at 25 mg/kg [5]: -72%
change in vivo at 25 mg/kg [6]: -20%
